Data from the supplement of paper PMC10307832.

What was measured:
Assay in all cases: relative viability (nuclei count vs DMSO), 5 days (fraction); higher = more cells survive
Metformin + Pemetrexed = compound: CN(C)C(=N)NC(=N)N [Metformin] + Nc1nc2[nH]cc(CCc3ccc(C(=O)N[C@@H](CCC(=O)O)C(=O)O)cc3)c2c(=O)[nH]1 [Pemetrexed] (partner 0.2 µM)
In short: (§1)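 For relative viability, nuclei counts in treated wells were divided by those in vehicle wells. Lung cancer cell lines had been pin-tool dosed in 1536-well plates the day after seeding and cultured for 5 days, then fixed and stained in one step (final 0.05% Triton X-100, 1% formaldehyde, 1 ug/ml Hoechst) and imaged at 4×. Doses were one drug alone or a fixed anchor-drug dose plus five library-drug doses (not always all listed) in √10 steps, and values are duplicate-plate medians.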

Apatinib + Decitabine = compound: N#CC1(c2ccc(NC(=O)c3cccnc3NCc3ccncc3)cc2)CCCC1 [Apatinib] + Nc1ncn([C@H]2C[C@H](O)[C@@H](CO)O2)c(=O)n1 [Decitabine] (partner 2 µM)
In short: as §1

Apatinib + Alpelisib = compound: N#CC1(c2ccc(NC(=O)c3cccnc3NCc3ccncc3)cc2)CCCC1 [Apatinib] + Cc1nc(NC(=O)N2CCC[C@H]2C(N)=O)sc1-c1ccnc(C(C)(C)C(F)(F)F)c1 [Alpelisib] (partner 2 µM)
In short: as §1

Metformin + Palbociclib = compound: CN(C)C(=N)NC(=N)N [Metformin] + CC(=O)c1c(C)c2cnc(Nc3ccc(N4CCNCC4)cn3)nc2n(C2CCCC2)c1=O [Palbociclib] (partner 0.5 µM)
In short: as §1

Cell Line	relative viability (Metformin + Pemetrexed; first compound 10 µM)	relative viability (Metformin + Pemetrexed; first compound 31.62 µM)	relative viability (Metformin + Pemetrexed; first compound 100 µM)	relative viability (Metformin + Pemetrexed; first compound 316.23 µM)	relative viability (Metformin + Pemetrexed; first compound 1000 µM)	relative viability (Apatinib + Decitabine; first compound 0.08 µM)	relative viability (Apatinib + Decitabine; first compound 0.253 µM)	relative viability (Apatinib + Decitabine; first compound 0.8 µM)	relative viability (Apatinib + Decitabine; first compound 2.53 µM)	relative viability (Apatinib + Decitabine; first compound 8 µM)	relative viability (Apatinib + Alpelisib; first compound 0.08 µM)	relative viability (Apatinib + Alpelisib; first compound 0.253 µM)	relative viability (Apatinib + Alpelisib; first compound 0.8 µM)	relative viability (Apatinib + Alpelisib; first compound 2.53 µM)	relative viability (Apatinib + Alpelisib; first compound 8 µM)	relative viability (Metformin + Palbociclib; first compound 10 µM)	relative viability (Metformin + Palbociclib; first compound 31.62 µM)	relative viability (Metformin + Palbociclib; first compound 100 µM)	relative viability (Metformin + Palbociclib; first compound 316.23 µM)	relative viability (Metformin + Palbociclib; first compound 1000 µM)
NCI-H2087	0.622	0.702	0.615	0.536	0.614	0.272	0.285	0.331	0.239	0.236	1.19	1.07	1.03	0.904	0.666	0.263	0.226	0.268	0.218	0.235
LK-2	0.319	0.292	0.255	0.237	0.306	0.299	0.298	0.273	0.21	0.273	1.33	1.29	1.04	1.01	0.919	0.86	0.837	0.706	0.718	0.877
NCI-H2347	0.406	0.482	0.408	0.465	0.399	0.666	0.592	0.67	0.674	0.804	0.943	1.02	1	1.02	0.944	0.443	0.453	0.404	0.382	0.408
COR-L 105	1.12	1.26	1.33	1.29	1.1	0.706	0.716	0.631	0.711	0.632	1.01	1.23	0.82	0.921	0.731	0.419	0.44	0.464	0.433	0.441
NCI-H1437	0.347	0.336	0.343	0.352	0.317	0.583	0.584	0.524	0.505	0.46	1.03	1.11	0.911	0.912	0.644	0.384	0.459	0.439	0.389	0.4
SK-LU-1	0.853	0.956	0.97	0.892	0.905	0.724	0.782	0.671	0.667	0.675	1.15	1.15	0.979	0.906	0.692	0.358	0.388	0.365	0.358	0.367
